# In patent US8679478B2, “Methods of lysosomal storage disease therapy” (Duke University, priority 2010, dated 2014):
# Legend:
# Assay type in all cases: in vivo, mouse
# [1] = system: CI-MPR-KO/GAA-KO (DKO) mice v. GAA-KO (Pompe disease) mice; test: Glycogen content in tissues after rhGAA administration, DKO v. GAA-KO mice; conditions: rhGAA four weekly doses, dose not given
# Experimental: (§1) CI-MPR-KO mice were generated using a muscle-specific promoter (muscle creatine kinase; CK) and the cre/loxP conditional knock out system essentially as described previously (Wylie et al., Am. J. Pathol., 2003, 162: 321-328). The muscle-specific CI-MPR-KO mice were crossed with GAA-KO mice to generate muscle specific DKO mice). This mouse colony was subsequently screened to be GAA−/−, M6PR flox/flox and MCK-Cre positive. These DKO mice and age matched Pompe mice were administered four weekly doses of 20 or 100 mg/kg rhGAA and sacrificed 3 days after the last injection. Selected tissues were collected for GAA enzyme activity levels, glycogen content depletion and Western blot analysis. Pompe and DKO mice injected with vehicle were used as controls.
# (§2) For in vivo analysis of AAV vectors, stocks were administered intravenously (via the retroorbital sinus) in 3 month-old and 15 month-old GAA-KO mice, and to 3 month-old tolerant GAA-KO and DKO mice. Clenbuterol (30 μg/ml) was administered to groups of 3 month-old vector-injected and mock-injected male GAA-KO mice in drinking water for 28 days. At the indicated time points post-injection, tissue samples were obtained and processed as described below. All animal procedures were done in accordance with Duke University Institutional Animal Care and Use Committee-approved guidelines. GAA activity and glycogen content were analyzed essentially as described (Sun et al., Mol. Ther., 2005, 11:889-898; Sun et al., Mol. Ther., 2005, 11: 57-65). Rotarod testing was performed essentially as described (Sun, B. D. et al. 2005). Western blotting of hGAA was performed essentially as described (Amalfitano et al., Proc. Natl. Acad. Sci. USA, 1999, 96: 8861-8866) using the hGAA monoclonal antibody (courtesy of Genzyme Corp., Framingham, Mass.) and the CI-MPR antibody (catalog number GTX28093; Gene Tex, Irvine, Calif.).
# (§3) To further understand the role of CI-MPR in recombinant human GAA (rhGAA) uptake and glycogen clearance specifically in Pompe disease, muscle-specific CI-MPR-KO mice were crossed with GAA-KO (Pompe disease) mice. The DKO mice were administered four weekly doses of 20 mg/kg and 100 mg/kg body weight of recombinant human rhGAA and sacrificed three days after the last injection to evaluate GAA enzyme levels and glycogen depletion in the target tissues. […]
# GAA-KO mice [2] = test: Glycogen clearance after rhGAA in GAA-KO (Pompe) mice
# Experimental: as §1, §2
# (§4) To further understand the role of CI-MPR in recombinant human GAA (rhGAA) uptake and glycogen clearance specifically in Pompe disease, muscle-specific CI-MPR-KO mice were crossed with GAA-KO (Pompe disease) mice. […]
# [3] = system: CI-MPR-KO/GAA-KO (DKO) mice v. GAA-KO (Pompe disease) mice; test: GAA enzyme activity in tissues after rhGAA administration, DKO v. GAA-KO mice; conditions: for GAA decrease in DKO v. GAA-KO (%): rhGAA four weekly doses, dose not given
# Experimental: as §1, §2, §3
# DKO mice = test: Glycogen clearance after rhGAA in DKO mice
# Experimental: as §1, §2, §4
# GAA-KO mice [4] = test: Glycogen content in muscles, ERT plus clenbuterol or albuterol; conditions: ERT plus albuterol 30 μg/ml drinking water
# Experimental: FIG. 8A-8C depicts increased GAA uptake and increased glycogen clearance in GAA-KO mice following clenbuterol treatment and ERT. […] GAA-KO mice were administered four weekly doses of rhGAA (20 mg/kg), and treated with clenbuterol (n=6) or untreated (n=5). […] Mean+/−standard deviation are shown. Statistically significant differences indicated (*=p<0.05; **=p<0.01).
# GAA-KO mice were treated with weekly rhGAA (20 mg/kg): with medium clenbuterol, […] (n=6), with low clenbuterol, 1.3 mg/ml (n=6), with albuterol 30 mg/ml (n=4), or without drug treatment (n=3). Drugs were administered in the drinking water. Mean+/−s.d. shown. Statistically significant differences indicated (*=p<0.05; **=p<0.01).
# as §2
# The efficacy from gene therapy was increased by β2 agonist stimulation from clenbuterol treatment, and this benefit might be expected to affect ERT in Pompe disease, as well. Therefore, groups of 3 month-old GAA-KO mice were treated with four weekly doses of rhGAA (20 mg/kg), with or without concurrent clenbuterol treatment.
# [5] = system: immune tolerant GAA-KO mice; test: Rotarod testing, ERT plus β2 agonist (Example 6); conditions: one week later (than 4 weeks); albuterol 30 mg/l drinking water plus ERT v. ERT alone
# Experimental: GAA-KO mice were administered four weekly doses of rhGAA (20 mg/kg), and treated with medium dose clenbuterol (n=7), albuterol (n=4) or untreated (n=6 or 3). […] Mean+/−standard deviation are shown. P values indicate statistically significant differences (lines).
# Two β2 agonists were evaluated in combination with ERT, clenbuterol and albuterol. The dose of clenbuterol was reduced 5-fold from the concentration used in Example 4, to 6 mg/l in drinking water, while albuterol was evaluated at the higher dose (30 mg/l in drinking water). Groups of 3 month-old immune tolerant GAA-KO mice (Raben et al., Human Mol. Genet., 2001, 10:2039-2047) were treated with four weekly doses of rhGAA (20 mg/kg body weight), with or without concurrent β2 agonist treatment.
# Mice were sacrificed 7 days after the last injection. Selected tissues were collected for GAA enzyme activity and glycogen content analyses. […] GAA activity and glycogen content analyses, Rotarod testing, and Western blot detection of CI-MPR was performed essentially as described (Koeberl et al., Mol. Genet. Metab., 2011, 103:107-112. Wire hang testing was performed with a 0.5 cm mesh hardware cloth fixed to an 8 by 10 inch frame. Mice were placed on the wire mesh, which was slowly inverted 6 inches over a cage containing paper bedding. The latency, or time until the mouse fell into the cage, was recorded.
# [6] = system: immune tolerant GAA-KO mice; test: Glycogen content in tissues, ERT plus β2 agonist (Example 6)
# Experimental: (§5) Male GAA-KO mice were administered four weekly doses of 20 mg/kg body weight of rhGAA and sacrificed one week following the last injection. Groups of mice were treated with clenbuterol (n=6), albuterol (n=4) or untreated (n=6). Mice were euthanized for tissue analysis 5 weeks after initiation of ERT.
# (§6) Cerebral and cerebellar hemispheres were analyzed 5 weeks following the initiation of ERT. Groups of mice were treated with clenbuterol (n=6), albuterol (n=4) or untreated (n=6).
# (§7) Two β2 agonists were evaluated in combination with ERT, clenbuterol and albuterol. […] Groups of 3 month-old immune tolerant GAA-KO mice (Raben et al., Human Mol. Genet., 2001, 10:2039-2047) were treated with four weekly doses of rhGAA (20 mg/kg body weight), with or without concurrent β2 agonist treatment.
# (§8) Mice were sacrificed 7 days after the last injection. Selected tissues were collected for GAA enzyme activity and glycogen content analyses. All animal procedures were done in accordance with Duke University Institutional Animal Care and Use Committee-approved guidelines. GAA activity and glycogen content analyses, Rotarod testing, and Western blot detection of CI-MPR was performed essentially as described (Koeberl et al., Mol. Genet. Metab., 2011, 103:107-112. Wire hang testing was performed with a 0.5 cm mesh hardware cloth fixed to an 8 by 10 inch frame. Mice were placed on the wire mesh, which was slowly inverted 6 inches over a cage containing paper bedding. The latency, or time until the mouse fell into the cage, was recorded.
# [7] = system: immune tolerant GAA-KO mice; test: Histopathology of brain, glycogen staining; conditions: cerebellum; in comparison with ERT alone
# Experimental: Histopathology was performed to examine brain involvement, and glycogen accumulations were detected in the cerebellum with ERT alone. Albuterol and clenbuterol each reduced the glycogen staining in the cerebellum, in comparison with ERT alone.
# [8] = system: immune tolerant GAA-KO mice; test: GAA activity in tissues, ERT plus β2 agonist (Example 6)
# Experimental: as §5, §6, §7, §8
compound,measurement,setting,value
rhGAA: recombinant human acid α-glucosidase used for enzyme replacement therapy (ERT) in Pompe disease,Glycogen increase in DKO v. GAA-KO (%),[1]; Diaphragm,192%
same,Glycogen increase in DKO v. GAA-KO (%),[1]; Gastrocnemius,340%
same,Glycogen increase in DKO v. GAA-KO (%),[1]; Heart,1600%
same,Glycogen increase in DKO v. GAA-KO (%),[1]; Quadriceps,300%
same,Glycogen increase in DKO v. GAA-KO (%),[1]; Triceps,425%
same,glycogen clearance,"GAA-KO mice [2]; GAA-KO mouse heart, rhGAA 100 mg/kg",99%
same,glycogen clearance,"GAA-KO mice [2]; heart of Pompe mice, rhGAA 20 mg/kg",77%
same,glycogen depletion,"GAA-KO mice [2]; quadriceps of GAA-KO mice, rhGAA 20 mg/kg",55%
same,GAA decrease in DKO v. GAA-KO (%),[3]; Diaphragm,2%
same,GAA decrease in DKO v. GAA-KO (%),[3]; Gastrocnemius,72%
same,GAA decrease in DKO v. GAA-KO (%),[3]; Heart,47%
same,GAA decrease in DKO v. GAA-KO (%),[3]; Quadriceps,79%
same,GAA decrease in DKO v. GAA-KO (%),[3]; Triceps,76%
same,reduced rhGAA uptake in DKO mice as compared with Pompe mice,"[3]; heart, 100 mg/kg rhGAA",50%
same,rhGAA uptake (enzyme activity) in DKO v. GAA-KO mice,"[3]; skeletal tissues (quadriceps, triceps, gastrocnemius), 20 and 100 mg/kg",significantly decreased uptake
same,glycogen clearance,"DKO mice; DKO mouse heart, rhGAA 100 mg/kg",95%
same,glycogen clearance,"DKO mice; heart of DKO mice, rhGAA 20 mg/kg",7%
same,glycogen depletion,"DKO mice; quadriceps of DKO mice, rhGAA 20 mg/kg",8%
CC(C)(C)NCC(O)c1ccc(O)c(CO)c1 (stereo not drawn) [albuterol],glycogen content of the quadriceps,GAA-KO mice [4],trend toward decreasing
same,Rotarod latency,[5],increased latency
same,Glycogen content,"[6]; cerebellum, β2 agonist plus ERT v. ERT alone",reduced significantly
same,Glycogen content,"[6]; liver, albuterol plus ERT v. ERT alone",significantly reduced
same,Glycogen content,"[6]; quadriceps, albuterol plus ERT v. ERT alone",significantly reduced
same,glycogen staining (histopathology),[7],reduced
same,GAA activity,"[8]; cerebellum, 5 weeks after initiation of ERT, clenbuterol p=0.08, albuterol p=0.09",trend toward increased GAA activity
same,GAA activity,"[8]; tibialis anterior only, albuterol plus ERT v. ERT alone",increased
same,GAA activity in tissues with reduced glycogen content,[8]; β2 agonist plus ERT v. ERT alone,unchanged
